Assay [1] concerns hepatitis B virus (HBV) ayw strain. Kind of assay: HBV experimental assay system, HepG2-2.2.15, secreted HBV DNA by TaqMan PCR. The format is cell-based. The following applies: 10 micrograms per ml, HepG2-2.2.15 cells, six days.
The subject of another assay is HCMV strain AD169. The assay can be described thus: HCMV plaque formation assay in MRC-5 cells. The format is cell-based. The following applies: 10 micrograms per ml, 7-10 days. From the text: Ganciclovir was used as positive control.
For another assay, the system named is spleen cells. The assay can be described thus: Th1/Th2 cytokine profiling assay (Ovalbumin-restimulated spleen cells, CBA kit). The format is cell-based, Balb/c mice. The following applies: 10 micrograms per ml; Ovalbumin restimulation; 72 hours.
Assay [2] relates to Primary Human endothelial cells (HUVEC). Kind of assay: Endothelial cell migration assay. The class given is cell-based. The following applies: 10 micrograms per ml, 22 hours, combination peptide 1:peptide 2 0.95 mole:1.05 mole. On the procedure: Thereafter, designated concentration of testing peptides—10 micrograms per ml—was added in duplicate wells.
The test system of the next assay is HUVEC. The assay can be described thus: Endothelial tube formation assay. The format is cell-based, human. The following applies: 10 micrograms per ml, 20 hours, combination peptide 1:peptide 2 1.10 mole:0.90 mole.

Where no end group is shown, it is not given here.

From the text for spleen cells: The Balb/c mice (originated in 1923, it is a popular strain and is used in many different research disciplines. Also classified as an inbred from the production of 20 or more successive brother-sister matings, the Balb/c mouse is albino and small in size) were immunized on Days 1, 15, and 29 with Ovalbumin (Ovalbumin is the main protein found in egg white, commonly used to stimulate an immunological reaction in test animals) in PBS (5 micrograms/injection). On day 50, spleens of the mice were harvested (3 weeks after last boost with Ovalbumin). Cells were cultured (2×10^5/well in triplicate) and incubated with culture medium or test peptides—10 micrograms per ml—for 30 min. Thereafter, additional Ovalbumin was added to the cells at 10 micrograms/ml for in vitro restimulation of the cells. 72 hours later, cell supernatants were harvested and assayed using the Becton Dickinson Mouse Th1/Th2 Cytokine CBA Kit.

For “Glu-Ile-Gly-Asp-Glu-Glu-Asn-Ser-Ala-Lys-Phe-Pro-Ile-NH2 (EIGDEENSAKFPI-NH2) [Peptide 1]”, the “inhibition of HBV replication as compared to the virus control infection” value in assay [1] is listed as “no effect”. In addition, the “inhibition of HCMV plaque formation as compared to the virus control experiment” value with HCMV strain AD169 came out at 5.8%. Moreover, in the assay on spleen cells, the “IFNγ spleen cells; TH1 response (% of control)” value is given as 149.4 % of control, the “IL-2 spleen cells (% of control)” value is recorded as 212.4 % of control, the “IL-4 spleen cells; TH2 response (% of control)” value is 163.3 % of control and the “IL-5 spleen cells; TH2 response (% of control)” value was 115.8 % of control. Besides, the “TNF-a spleen cells; TH1 response (% of control)” value in the assay on spleen cells is 155.5 % of control. Further, in assay [2], the “inhibition of the migration of human endothelial cells” value is listed as 53%.
For “Phe-Arg-Trp-Gly-Lys-Pro-Val-Gly-Lys-Lys-Arg-Arg-Pro-Val-Lys-Val-Tyr-Pro-Asn-Gly-Ala-Glu-Asp-Glu-Ser-Ala-Glu-Ala-Phe-Pro-Leu-Glu-OH (FRWGKPVGKKRRPVKVYPNGAEDESAEAFPLE-OH) [Peptide 2]”, the “inhibition of HBV replication as compared to the virus control infection” value in assay [1] is on record as 8.4%. Also, in the assay with HCMV strain AD169, the “inhibition of HCMV plaque formation as compared to the virus control experiment” value is reported as “does not inhibit”. Further, in the assay on spleen cells, the “IFNγ spleen cells; TH1 response (% of control)” value is 113.7 % of control, the “IL-2 spleen cells (% of control)” value is 137.1 % of control, the “IL-4 spleen cells; TH2 response (% of control)” value is on record as 0.0 % of control and the “IL-5 spleen cells; TH2 response (% of control)” value is given as 106.3 % of control. In addition, the “TNF-a spleen cells; TH1 response (% of control)” value with spleen cells was 138.0 % of control. Further, the “inhibition of the migration of human endothelial cells” value in assay [2] amounted to 41%. The “inhibition of the tube formation of human endothelial cells” value in the assay on HUVEC is “did not inhibit”.

The values above are taken from patent US20100210535A1, “[…] USE OF NE[…] AND ACTH 7-38 AND COMPOSITIONS THEREOF” (priority 2007, published 2010).
